Source: US11286258B2, “Nature-inspired anticancer and antibacterial motifs and pharmaceutical composition thereof” (University of Sharjah, priority 2020, dated 2022)
In brackets after ≈: the same amount, converted by molar mass. Where two headings read alike, the source gives them in different places. Marks after values point to notes of the source that are not given here.

What was measured:
E. coli ATCC25922 = experiment: MIC broth microdilution, E. coli ATCC25922; format: cell-based, Escherichia coli; conditions: not MDR, overnight incubation; for MIC: Escherichia coli, ATCC25922
Method: (§1) Antibacterial activity: The compounds were tested for the minimum inhibitory concentrations (MIC), which is the lowest concentration of a chemical required to inhibit visible microbial growth following overnight incubation. MIC values were determined using broth microdilution method according to the Clinical and Laboratory Standards Institute guidelines (CLSI, 2015, M07-A10). Mueller-Hinton broth was used as a culture medium in all the experiments. Exponentially growing bacterial cells were prepared in Mueller-Hinton broth at a concentration of approximately 5×10^5 CFU/mL. Two-fold serial dilutions of the test compound (8 concentrations ranged between 100-0.78 μg/mL) were tested. […] In each experiment, solvent (DMSO) was used as a negative control, un-treated control (composing of bacteria in Mueller-Hinton broth) was used as a growth control, blank (culture media alone) was used as sterility control. The 96-well microplate with the test compounds was incubated overnight at 37° C. Turbidity in wells indicated bacterial growth.
(§2) The compounds were tested on six MDR Gram-positive bacteria including three clinical isolates of methicillin-resistant Staphylococcus aureus (MRSA-1, MRSA-2 and MRSA-3) and three reference MRSA strains (ATCC33591, ATCC33592 and ATCC700699). They were also tested on three MDR Gram-negative bacteria including New Delhi metallo-beta-lactamase (NDM-1) positive, carbapenem-resistant E. coli (ATCC BAA2469), extended-spectrum beta-lactamase (ESBL) producing, colistin-resistant E. coli (CDC-AR-0346) and carbapenem-resistant Acinetobacter baumannii (ATCC BAA1605), in addition to two non-MDR bacteria from the same species, namely E. coli (ATCC 25922) Acinetobacter baumannii (ATCC 19606).

[1] = test system: E. coli ATCC BAA2469 (NDM-1 carbapenem-resistant); experiment: MIC broth microdilution, E. coli ATCC BAA2469; format: cell-based, Escherichia coli; conditions: overnight incubation; for MIC: Escherichia coli, ATCCBAA2469, MDR; for MIC E. coli ATCC BAA2469 (NDM-1 carbapenem-resistant): MDR
Method: as §1, §2

[2] = test system: E. coli CDC-AR-0346 (ESBL, colistin resistant); experiment: MIC broth microdilution, E. coli CDC-AR-0346; format: cell-based, Escherichia coli; conditions: MDR, overnight incubation; for MIC: Escherichia coli
Method: as §1, §2

[3] = test system: Acinetobacter baumannii ATCC 19606; experiment: MIC broth microdilution, A. baumannii ATCC 19606; format: cell-based; conditions: not MDR, overnight incubation; for MIC: Acinetobacter baumannii, ATCC19606
Method: as §1, §2

[4] = test system: Acinetobacter baumannii ATCC BAA1605 (carbapenem-resistant); experiment: MIC broth microdilution, A. baumannii ATCC BAA1605; format: cell-based; conditions: overnight incubation; for MIC: Acinetobacter baumannii, ATCCBAA1605, MDR; for MIC Acinetobacter baumannii ATCC BAA1605 (carbapenem-resistant): MDR
Method: as §1, §2

[5] = test system: MRSA-1 (clinical isolate); experiment: MIC broth microdilution, MRSA-1; format: cell-based, Staphylococcus aureus; conditions: for MIC: Staphylococcus aureus, MRSA, read-out: MIC MRSA-1 (clinical isolate)
Method: as §1, §2

[6] = test system: MRSA-2 (clinical isolate); experiment: MIC broth microdilution, MRSA-2; format: cell-based, Staphylococcus aureus; conditions: for MIC: Staphylococcus aureus, MRSA, read-out: MIC MRSA-2 (clinical isolate)
Method: as §1, §2

[7] = test system: MRSA-3 (clinical isolate); experiment: MIC broth microdilution, MRSA-3; format: cell-based, Staphylococcus aureus; conditions: for MIC: Staphylococcus aureus, MRSA, read-out: MIC MRSA-3 (clinical isolate)
Method: as §1, §2

MRSA-ATCC33591 = experiment: MIC broth microdilution, MRSA ATCC33591; format: cell-based, Staphylococcus aureus; conditions: for MIC: Staphylococcus aureus, read-out: MIC MRSA-ATCC33591
Method: as §1, §2

MRSA-ATCC33592 = experiment: MIC broth microdilution, MRSA ATCC33592; format: cell-based, Staphylococcus aureus; conditions: for MIC: Staphylococcus aureus, read-out: MIC MRSA-ATCC33592
Method: as §1, §2

MRSA-ATCC700699 (VISA) = experiment: MIC broth microdilution, MRSA ATCC700699 (VISA); format: cell-based, Staphylococcus aureus; conditions: for MIC: Staphylococcus aureus, read-out: MIC MRSA-ATCC700699 (VISA)
Method: as §1, §2

HCT-116 = experiment: MTT cell viability, HCT-116; format: cell-based; conditions: Homo sapiens, colon cancer, 48 h of drug treatment, average of three experiments
From the text: (§3) Cell culture: In this study five different cancer cell lines were used, human lung carcinoma (A549), human breast adenoma (MCF-7), Cervical carcinoma (Hela), hepatocellular carcinoma (Hep3B), and colorectal adenocarcinoma (HCT-116). These cells were obtained from the European Collection of Cell Cultures (ECACC, UK). Hep3B cells were maintained in Dulbecco's Modified Eagle Medium (DMEM: Sigma-Aldrich), and the four other cell lines were maintained in Roswell Park Memorial Institute medium (RPMI, Sigma-Aldrich, St. Louis, Mo., USA), which was supplemented with 10% fetal bovine serum (FBS, Sigma-Aldrich) and 1% penicillin/streptomycin (Sigma-Aldrich). Cells were incubated all the time at 37° C. in a humidified atmosphere of 5% CO2. Cell viability studies: Cell viability was assessed using the MTT assay as described before. In brief, all cancer cell lines were seeded at a density of 4×10^4/well in 96 well flat-bottom plates. After 24 h from seeding, cells were treated with the synthesized compounds and left for an incubation period of 48 h. Upon reaching the indicated time point, the media was removed and replaced with 200 μL fresh media containing 0.5 mg/mL of MTT tetrazolium dye (Sigma-Aldrich). Cells were then incubated with MTT solution for 2 h at 37° C. The resultant formazan crystals were dissolved in 200 μl/well of DMSO and absorbance was measured at 570 nm using a microplate reader (Thermo Scientific).

HELA = experiment: MTT cell viability, HELA; format: cell-based; conditions: Homo sapiens, cervical cancer, 48 h of drug treatment, average of three experiments
From the text: as §3

A549 = experiment: MTT cell viability, A549; format: cell-based; conditions: Homo sapiens, lung cancer, 48 h of drug treatment, average of three experiments
From the text: as §3

HEP3B = experiment: MTT cell viability, HEP3B; format: cell-based; conditions: Homo sapiens, liver cancer, 48 h of drug treatment, average of three experiments
From the text: as §3

MCF-7 = experiment: MTT cell viability, MCF-7; format: cell-based; conditions: Homo sapiens, MCF7; breast cancer; 48 h of drug treatment; average of three experiments
From the text: as §3

[8] = overnight incubation, Mueller-Hinton broth
[9] = strain intermediately resistant to vancomycin, overnight incubation

CO/N=C(\C(=O)N[C@@H]1C(=O)N2C(C(=O)O)=C(COC(C)=O)CS[C@H]12)c1csc(N)n1 [Cefotaxime]
MIC (E. coli ATCC25922): 0.03 µg/mL (≈ 0.0659 µM) | MIC [1]: 250 µg/mL (≈ 549 µM) | MIC [2]: > 1000 µg/mL | MIC [3]: 20 µg/mL (≈ 43.9 µM) | MIC [4]: ≥ 1000 µg/mL | MIC Acinetobacter baumannii ATCC BAA1605 (carbapenem-resistant) [4]: 1000 µg/mL (≈ 2200 µM)

C[C@@H](O)[C@H]1C(=O)N2C(C(=O)O)=C(S[C@@H]3CN[C@H](C(=O)N(C)C)C3)[C@H](C)[C@H]12 [Meropenem]
MIC (E. coli ATCC25922): < 0.02 µg/mL | MIC [1]: 25 µg/mL (≈ 65.2 µM) | MIC [2]: < 0.2 µg/mL | MIC [3]: 0.6 µg/mL (≈ 1.56 µM) | MIC [4]: 12.5 µg/mL (≈ 32.6 µM)

FC(F)(F)c1ccc(N/N=C2\C=C[C@@]3(CC2)CC[C@@H]2NCCc4c2n3c2ccc(OCc3ccccc3)cc42)cc1 [Compound 1l]
MIC [5, 8]: 1.56 µg/mL (≈ 2.8 µM) | MIC [6, 8]: 3.12 µg/mL (≈ 5.61 µM) | MIC [7, 8]: 3.12 µg/mL (≈ 5.61 µM) | MIC (MRSA-ATCC33591; [8]): 3.12 µg/mL (≈ 5.61 µM) | MIC (MRSA-ATCC33592; [8]): 3.12 µg/mL (≈ 5.61 µM) | MIC (MRSA-ATCC700699 (VISA); [9]): 3.12 µg/mL (≈ 5.61 µM)

Colistin
MIC E. coli ATCC25922 (E. coli ATCC25922): 0.2 µg/mL | MIC E. coli ATCC BAA2469 (NDM-1 carbapenem-resistant) [1]: 1.25 µg/mL | MIC E. coli CDC-AR-0346 (ESBL, colistin resistant) [2]: 6.25 µg/mL | MIC Acinetobacter baumannii ATCC 19606 [3]: 1.25 µg/mL | MIC Acinetobacter baumannii ATCC BAA1605 (carbapenem-resistant) [4]: 1.25 µg/mL

Fc1ccc(N/N=C2\C=C[C@@]3(CC2)CC[C@@H]2NCCc4c2n3c2ccccc42)cc1 [Compound 1b]
IC50 (HCT-116): 6.43 ± 0.03 µM | IC50 (HELA): > 10 µM | IC50 (A549): 10.25 ± 0.08 µM | IC50 (HEP3B): 8 ± 0.07 µM | IC50 (MCF-7): 6.22 ± 0.16 µM

COC(=O)[C@H]1Cc2c3n(c4ccccc24)[C@@]2(C=C/C(=N\Nc4ccc(C(F)(F)F)cc4)CC2)CC[C@@H]3N1 [Compound 1n]
MIC [5, 8]: 3.12 µg/mL (≈ 6.14 µM) | MIC [6, 8]: 3.12 µg/mL (≈ 6.14 µM) | MIC [7, 8]: 3.12 µg/mL (≈ 6.14 µM) | MIC (MRSA-ATCC33591; [8]): 6.25 µg/mL (≈ 12.3 µM) | MIC (MRSA-ATCC33592; [8]): 6.25 µg/mL (≈ 12.3 µM) | MIC (MRSA-ATCC700699 (VISA); [9]): 6.25 µg/mL (≈ 12.3 µM)

Brc1ccc(N/N=C2\C=C[C@@]3(CC2)CC[C@@H]2NCCc4c2n3c2ccccc42)cc1 [Compound 1c]
IC50 (HCT-116): 2.65 ± 0.05 µM | IC50 (HELA): 5.3 ± 0.35 µM | IC50 (A549): 3.9 ± 0.04 µM | IC50 (HEP3B): 4.21 ± 0.06 µM | IC50 (MCF-7): 2.75 ± 0.06 µM | MIC [5, 8]: 3.12 µg/mL (≈ 6.77 µM) | MIC [6, 8]: 3.12 µg/mL (≈ 6.77 µM) | MIC [7, 8]: 3.12 µg/mL (≈ 6.77 µM) | MIC (MRSA-ATCC33591; [8]): 6.25 µg/mL (≈ 13.5 µM) | MIC (MRSA-ATCC33592; [8]): 6.25 µg/mL (≈ 13.5 µM) | MIC (MRSA-ATCC700699 (VISA); [9]): 6.25 µg/mL (≈ 13.5 µM)

Gentamicin [reference compound]
MIC MRSA-1 (clinical isolate) [5, 8]: 50 µg/mL | MIC MRSA-2 (clinical isolate) [6, 8]: 0.625 µg/mL | MIC MRSA-3 (clinical isolate) [7, 8]: 0.625 µg/mL | MIC MRSA-ATCC33591 (MRSA-ATCC33591; [8]): 2.5 µg/mL | MIC MRSA-ATCC33592 (MRSA-ATCC33592; [8]): >500 µg/mL | MIC MRSA-ATCC700699 (VISA) (MRSA-ATCC700699 (VISA); [9]): 500 µg/mL | MIC E. coli ATCC25922 (E. coli ATCC25922): 0.625 µg/mL | MIC E. coli ATCC BAA2469 (NDM-1 carbapenem-resistant) [1]: >1000 µg/mL | MIC E. coli CDC-AR-0346 (ESBL, colistin resistant) [2]: >1000 µg/mL | MIC Acinetobacter baumannii ATCC 19606 [3]: 10 µg/mL | MIC Acinetobacter baumannii ATCC BAA1605 (carbapenem-resistant) [4]: 125 µg/mL

CO/N=C(\C(=O)N[C@@H]1C(=O)N2C(C(=O)O)=C(CSc3nc(=O)c(=O)[nH]n3C)CS[C@H]12)c1csc(N)n1 [Ceftriaxone]
MIC (E. coli ATCC25922): 0.03 µg/mL (≈ 0.0541 µM) | MIC [1]: 500 µg/mL (≈ 902 µM) | MIC [2]: > 1000 µg/mL | MIC [3]: 20 µg/mL (≈ 36.1 µM) | MIC [4]: ≥ 1000 µg/mL | MIC Acinetobacter baumannii ATCC BAA1605 (carbapenem-resistant) [4]: >1000 µg/mL

CN[C@H](CC(C)C)C(=O)N[C@H]1C(=O)N[C@@H](CC(N)=O)C(=O)N[C@H]2C(=O)N[C@H]3C(=O)N[C@H](C(=O)N[C@H](C(=O)O)c4cc(O)cc(O)c4-c4cc3ccc4O)[C@H](O)c3ccc(c(Cl)c3)Oc3cc2cc(c3O[C@@H]2O[C@H](CO)[C@@H](O)[C@H](O)[C@H]2O[C@H]2C[C@](C)(N)[C@H](O)[C@H](C)O2)Oc2ccc(cc2Cl)[C@H]1O [Vancomycin, reference compound]
MIC [5]: 1 µg/mL (≈ 0.69 µM) | MIC [6]: 1 µg/mL (≈ 0.69 µM) | MIC [7]: 1 µg/mL (≈ 0.69 µM) | MIC (MRSA-ATCC33591): 1 µg/mL (≈ 0.69 µM) | MIC (MRSA-ATCC33592): 1 µg/mL (≈ 0.69 µM) | MIC (MRSA-ATCC700699 (VISA)): 8 µg/mL (≈ 5.52 µM) | MIC MRSA-ATCC700699 (VISA) (MRSA-ATCC700699 (VISA); [9]): 8 * μg/mL

COC(=O)[C@@H]1Cc2c3n(c4ccccc24)[C@@]2(C=C/C(=N\Nc4ccc(C(F)(F)F)cc4)CC2)CC[C@@H]3N1 [Compound 1m]
MIC [5, 8]: 3.12 µg/mL (≈ 6.14 µM) | MIC [6, 8]: 3.12 µg/mL (≈ 6.14 µM) | MIC [7, 8]: 3.12 µg/mL (≈ 6.14 µM) | MIC (MRSA-ATCC33591; [8]): 6.25 µg/mL (≈ 12.3 µM) | MIC (MRSA-ATCC33592; [8]): 6.25 µg/mL (≈ 12.3 µM) | MIC (MRSA-ATCC700699 (VISA); [9]): 6.25 µg/mL (≈ 12.3 µM)
